SMILES strings stand for the structures. A value given as a limit tells only on which side of the number the result lay.

This is an account of results in patent US12264175B2, “Compositions and methods for capping RNAS” (Verve Therapeutics, Inc., priority 2020, dated 2025).

One test has as its target T7 RNA polymerase (Escherichia phage T7, UniProt P00573). The test can be described thus: mRNA capping efficiency at adjusted 5′ end initiator-to-NTP molar ratio. Format: biochemical. The conditions noted are these: FIG. 4. From the text: The amount of capped mRNA produced in an IVT reaction is directly proportional to the ratio of cap to NTPs in the reaction mixture (Stepinski, J. et al., RNA. 2006, 7, 1486-1495). The 5′ end initiator-to-NTP ratio in an IVT reaction impacts the amount of mRNA that becomes capped primarily because cap can compete with NTPs for insertion at the 5′ end of mRNA. A typical initiator-to-NTP ratio for a dinucleotide cap structure is 4:1 and a typical molar initiator-to-NTP ratio for a trinucleotide cap structure is 1:1; where NTP represents either GTP, ATP, CTP, UTP, or modified NTPs such as N1-methyl pseudouridine. At both a 4:1 ratio for a dinucleotide cap and 1:1 ratio for a trinucleotide cap, the resultant mRNA will have a mixture of transcripts of which at least 80% are capped at the 5′ end and up to 20% are uncapped, this is also described as a capping efficiency of 80%. Capping efficiency is the measured amount of capped mRNA divided by the total amount of capped mRNA plus uncapped mRNA. Therefore, trinucleotide caps can be considered more efficient capping compounds than dinucleotide caps since less input cap is required to produce a final mRNA product that contains a similar amount of capped 5′ ends. The ability of trinucleotide caps to produce a high (>90%) capping efficiency at a lower initiator-to-NTP ratio than dinucleotide caps, in some instances, can be attributed to the increased affinity of a trinucleotide cap for the DNA template. In some cases, the optimal cap-to-NTP ratio may vary with the composition of the cap structure, wherein modification of cap structures may affect capping efficiency. […]
The amount of capped mRNA relative to the total amount of mRNA that is present, i.e. capping efficiency, can be measured by numerous methods well known in the art. […]

The subject of test [1] is primary human liver hepatocytes (hPH). The test can be described thus: ABE protein levels by ELISA after mRNA transfection of primary human hepatocytes. Particulars: ABE mRNA transfected to hPH cells, FIG. 6. It is filed as cell-based. As for the experimental part: Primary human liver hepatocytes (hPH), primary cynomolgus liver hepatocytes (cPH), or primary mouse liver hepatocytes (mPH) are cultured per the manufacturer's protocol. In brief, the cells are thawed and resuspended in hepatocyte thawing medium followed by centrifugation at 100 g for 10 min at 4° C. The supernatant is discarded, and the pelleted cells resuspended in hepatocyte plating medium. Each vial contains ˜5 million cells that are used for plating one 24-well plate. Plated cells are allowed to settle and adhere for 4-6 h in a tissue culture incubator at 37° C. under 5% CO2 atmosphere. After incubation, cells are checked for monolayer formation. The incubating media is then replaced with fresh hepatocyte maintenance media The cells thus are ready for transfection using a transfection agent such as MessengerMAX. Solution A: desired amount of single guide RNA (sgRNA) is mixed with 1:1 wt ratio of mRNA in OptiMEM. Solution B: MessengerMAX in OptiMEM. After mixing solutions A and B, the mixture is incubated at room temperature for 20 minutes, and then the incubated solution is added dropwise to each well of cells. The cells are then allowed to remain at 37° C. for 3 days. […] For example, mRNA with 5′ end region motifs, 1007a and 1107a, were transfected to hPH cells as described above, the cells were lysed, and ABE protein levels were measured by ELISA. […]
Background: In an ELISA, binding on a coated surface is turned into a signal by an enzyme label.

Sequence of T7 RNA polymerase (P00573 whole entry): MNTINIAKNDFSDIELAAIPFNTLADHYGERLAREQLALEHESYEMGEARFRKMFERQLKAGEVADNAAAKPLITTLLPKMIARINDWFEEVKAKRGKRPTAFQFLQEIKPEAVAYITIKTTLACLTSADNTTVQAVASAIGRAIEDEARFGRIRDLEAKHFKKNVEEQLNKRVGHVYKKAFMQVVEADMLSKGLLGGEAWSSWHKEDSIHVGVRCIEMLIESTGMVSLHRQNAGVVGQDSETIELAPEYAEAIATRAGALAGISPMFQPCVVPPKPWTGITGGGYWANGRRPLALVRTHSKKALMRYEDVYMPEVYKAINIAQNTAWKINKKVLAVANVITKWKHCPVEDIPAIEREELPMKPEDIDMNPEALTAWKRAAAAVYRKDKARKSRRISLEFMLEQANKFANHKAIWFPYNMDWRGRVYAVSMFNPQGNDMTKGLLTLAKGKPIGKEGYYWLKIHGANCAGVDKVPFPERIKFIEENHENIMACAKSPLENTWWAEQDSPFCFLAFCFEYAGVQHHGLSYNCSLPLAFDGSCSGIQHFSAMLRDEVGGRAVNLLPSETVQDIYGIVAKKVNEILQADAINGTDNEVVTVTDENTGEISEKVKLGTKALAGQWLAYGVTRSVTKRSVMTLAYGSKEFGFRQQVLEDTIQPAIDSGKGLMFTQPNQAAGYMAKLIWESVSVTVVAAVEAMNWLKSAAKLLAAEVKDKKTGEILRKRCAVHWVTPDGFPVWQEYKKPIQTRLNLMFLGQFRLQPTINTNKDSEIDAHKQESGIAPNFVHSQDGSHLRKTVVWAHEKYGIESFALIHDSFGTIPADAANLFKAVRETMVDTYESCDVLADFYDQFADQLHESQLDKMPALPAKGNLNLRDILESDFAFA

As for `COC1C(OP([O-])(=S)OCC2OC(n3cnc4c(=O)[nH]c(N)nc43)C(O)C2O)C(COP(=O)(O)OP(=O)(O)OP(=O)(O)OCC2OC(n3c[n+](C)c4c(=O)[nH]c(N)nc43)C(O)C2O)OC1n1cnc2c(N)ncnc21` (stereo not drawn) [1007a, m^7G(ppp)Am(ps)G], the capping efficiency at T7 RNA polymerase (initiator-to-NTP ratio ranging from 1:1 down to 1:2.5) was above 90%. Also, on T7 RNA polymerase (similar production conditions), the “capping efficiency compared to mRNA capped with 1002a” value is “similar”. In addition, the “ABE protein levels as compared to mRNA with 5′ end region motif 1002a” value in test [1] was “similar”.
